Measurements as given in US20030109571A1, “Thromboxane ligands without blood clotting side effects” (ALLERGAN SALES, INC., priority 1993, published 2003).
“Also recorded” adds a separate entry of the source. Like-named read-outs stand apart in the source and are kept apart here. Marks after values point to notes of the source that are not given here.

Assays:
FP prostanoid receptor = test: FP-activity: contraction of the isolated feline iris sphincter; details: concentration producing 50% of maximal response; read-out: EC50 at FP (Cat Iris)
Protocol: (§1) Activity at different prostanoid receptors was measured in vitro in isolated smooth muscle preparations. FP-activity was measured as contraction of the isolated feline iris sphincter. EP1-activity was measured as contraction of the longitudinal smooth muscle of the isolated guinea pig ileum. EP3-activity was measured as inhibition of the twitch response induced by electrical field stimulation in the isolated guinea pig was deferens and as contraction of the longitudinal smooth muscle of the isolated chick ileum. TP-vasoconstrictor activity was measured as contraction of rings of the isolated rat thoracic aorta. Effects on platelets from healthy human donors were measured by incubating platelet-rich plasma with the compounds described herein. Inhibition of aggregation was determined by the ability of the compounds described herein to inhibit platelet aggregation in platelet-rich plasma induced by 20 μM ADP.

EP1 prostanoid receptor = test: EP1-activity: contraction of longitudinal smooth muscle of isolated guinea pig ileum
Protocol: as §1

EP3 prostanoid receptor [1] = test: EP3-activity: inhibition of electrically induced twitch response in isolated guinea pig vas deferens; details: read-out: EC50 at EP3(c) (Guinea Pig vas deferens)
Protocol: as §1

EP3 prostanoid receptor [2] = test: EP3-activity: contraction of longitudinal smooth muscle of isolated chick ileum; details: read-out: EC50 at EP3(d) (Chick Ileum)
Protocol: as §1

[3] = molecular target: T1, TP-receptor (vascular, TPVASC) (Rattus norvegicus, UniProt P34978); test: TP-vasoconstrictor activity: contraction of rings of isolated rat thoracic aorta, without or with SQ29,548
T1 construct: measured in vitro in isolated smooth muscle preparations; from tissue; host or cells: rings of isolated rat thoracic aorta
T1 sequence (P34978 1-341): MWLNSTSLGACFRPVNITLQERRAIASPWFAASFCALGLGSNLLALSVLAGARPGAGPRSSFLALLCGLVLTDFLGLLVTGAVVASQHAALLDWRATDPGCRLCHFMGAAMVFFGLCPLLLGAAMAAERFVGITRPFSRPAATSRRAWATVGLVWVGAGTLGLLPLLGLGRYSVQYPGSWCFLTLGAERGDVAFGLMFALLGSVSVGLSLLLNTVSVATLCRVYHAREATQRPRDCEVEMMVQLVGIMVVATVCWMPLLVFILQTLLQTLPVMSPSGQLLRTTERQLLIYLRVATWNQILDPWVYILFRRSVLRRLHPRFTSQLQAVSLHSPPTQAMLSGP
Protocol: as §1
In addition, inhibition by the thromboxane A2-receptor antagonist SQ29,548 ([1S-[1α, 2α (5Z), 3α, 4α]]-7-[3-[[2-[phenylamino)carbonyl]-hydrazino]methyl]-7-oxabicyclo[2.2.1] hept-2-yl]-5-heptenoic acid) of vasoconstrictor activity was investigated.

Platelets (Human) = test: Platelet aggregation in platelet-rich plasma from healthy human donors; format: cell-based; details: for EC50: Table 1, read-out: EC50 Platelets (Human) Aggregation
Protocol: as §1

[4] = Dog intraocular pressure, topical dosing, applanation pneumatonometry; format: in vivo; details: dog
Protocol: (§2) The compounds were prepared at the said concentrations in a vehicle comprising 0.1% polysorbate 80 and 10 mM TRIS base. Dogs and monkeys were treated by administering 25 ul to the ocular surface, the contralateral eye received vehicle as a control. Intraocular pressure was measured by applanation pneumatonometry. Experiments were performed with dogs and monkeys. Dog intraocular pressure was measured immediately before drug administration and at 2, 4 and 6 hour thereafter. Additional studies in monkeys were performed over a 5 day period and drug was administered at times 0, 6, 24, 30, 48, 54, 72, 78, and 96 hours. Monkey intraocular pressure was recorded just before drug administration on each day and at the 2 and 4 hour time intervals between dosing.

[5] = Monkey intraocular pressure, topical dosing over 5 days, applanation pneumatonometry; format: in vivo; parameters: Intraocular pressure change: unit not given beside the values; details: monkey, dose 0.01%
Protocol: as §2

[6] = system: isolated perfused coronary arteries; details: cited from earlier work
Platelets [7] = test: Effect of Example 4 pretreatment on agonist-induced platelet aggregation; format: cell-based, human
Protocol: as §1, with “Inhibition of aggregation was determined by the ability of the compounds described herein to inhibit platelet aggregation in platelet-rich plasma induced by 20 μM ADP.” left out

vasculature = details: in words; cited from earlier work
platelets [8] = details: in words; cited from earlier work
[9] = in vivo, iv; cited from earlier work
[10] = Table 1, read-out: EC50 at TPVASC (Rat Aorta)
[11] = absence of SQ29,548, read-out: EC50 at TPVASC-receptor, rat aorta
[12] = presence of SQ29,548 (1 uM), read-out: EC50 at TPVASC-receptor, rat aorta

With CCCCCC(O)/C=C/C1C2CC(OC(=O)O2)C1C/C=C\CCCC(=O)O (centres unmarked) [Example 7] the EC50 (FP prostanoid receptor) was 433 nM, the EC50 (EP1 prostanoid receptor) was 1240 nM and the EC50 (EP3 prostanoid receptor [1]) was 282 nM. For the same compound, the EC50 (EP3 prostanoid receptor [2]) was 245 nM, the EC50 [3, 10] was 0.23 nM and the EC50 [3, 11] was 2 nM. The EC50 [3, 12] was 325 nM, the EC50 (Platelets (Human)) was 24 nM and the “Agonist response, platelet aggregation” value (Platelets (Human); agonist alone at 3.3 × 10-8) was −8.8 + 1.3 % of max response. For the same compound, the “Agonist response, platelet aggregation” value (Platelets (Human); agonist alone at 10-6) was 103.0 ± 1.9 % of max response, the “Agonist response, platelet aggregation” value (Platelets (Human); agonist alone at 10-7) was 100.5 ± 2.2 % of max response and the “Agonist response, platelet aggregation” value (Platelets (Human); agonist alone at 10-8) was −7.9 + 1.3 % of max response. For the same compound, the “Agonist response, platelet aggregation” value (Platelets (Human); agonist alone at 10-9) was 0 % of max response, the Intraocular pressure change ([4]; dose 0.01%, 2 HR after dosing) was −9.7** and the Intraocular pressure change ([4]; dose 0.01%, 4 HR after dosing) was −11.4**. For the same compound, the Intraocular pressure change ([4]; dose 0.01%, 6 HR after dosing) was −11.25**, the Intraocular pressure change ([5]; 0 HR) was 0 and the Intraocular pressure change ([5]; 2 HR) was −0.4. It also gave an Intraocular pressure change ([5]; 4 HR) of 0, an Intraocular pressure change ([5]; 6 HR) of 0 and an Intraocular pressure change ([5]; 24 HR) of −1.0. The Intraocular pressure change ([5]; 26 HR) was 3.2, the Intraocular pressure change ([5]; 28 HR) was −4.6 and the Intraocular pressure change ([5]; 30 HR) was −3.2. For the same compound, the Intraocular pressure change ([5]; 48 HR) was −1.8, the Intraocular pressure change ([5]; 50 HR) was −3.8 and the Intraocular pressure change ([5]; 52 HR) was −4.0. The Intraocular pressure change ([5]; 54 HR) was −4.2, the Intraocular pressure change ([5]; 72 HR) was 4.2 and the Intraocular pressure change ([5]; 74 HR) was −2.0. For the same compound, the Intraocular pressure change ([5]; 76 HR) was −3.2, the Intraocular pressure change ([5]; 78 HR) was −4.0 and the Intraocular pressure change ([5]; 96 HR) was −2.0. For the same compound, the Intraocular pressure change ([5]; 98 HR) was −2.2, the Intraocular pressure change ([5]; 100 HR) was −3.2 and the “Inhibition of vasoconstriction of isolated perfused cat coronary artery induced by carbocyclic TXA2” value ([6]; at 1 μM) was “Inhibited vasoconstriction of isolated perfused cat coronary artery induced by carbocyclic TXA2 by 72% at 1 μM^11”.

In the case of CCCCC[C@H](O)/C=C/[C@@H]1[C@@H](C/C=C\CCCCO)[C@@H]2C[C@H]1OC(=O)O2 [Example 4], the EC50 (FP prostanoid receptor) is reported as 485 nM, the EC50 (EP3 prostanoid receptor [1]) is reported as 2930 nM and the EC50 (EP3 prostanoid receptor [2]) is reported as > 10000 nM. For the same compound, the EC50 [3, 10] was 1 nM, the EC50 [3, 11] was 0.9 nM and the “Activity in contracting vascular smooth muscle” value ([3]; in words) was “pronounced activity”. The EC50 [3, 12] was 454 nM, the EC50 (Platelets (Human)) was > 10000 nM and the “Ability to cause platelet aggregation” value (Platelets (Human); in words) was “no or minimal ability; also recorded: neither causes platelet aggregation”. The “Platelet aggregation after Example 4 pretreatment” value (Platelets [7]; agonist 2 μM ADP, 10^-6 M Example 4) was 73.1 ± 14.3 % of max response, the “Platelet aggregation after Example 4 pretreatment” value (Platelets [7]; agonist 2 μM ADP, 10^-7 M Example 4) was 68.3 ± 12.9 % of max response and the “Platelet aggregation after Example 4 pretreatment” value (Platelets [7]; agonist 20 μM ADP, 10^-6 M Example 4) was 97.6 ± 1.8 % of max response. The “Platelet aggregation after Example 4 pretreatment” value (Platelets [7]; agonist 20 μM ADP, 10^-7 M Example 4) was 99.9 ± 1.4 % of max response, the “Platelet aggregation after Example 4 pretreatment” value (Platelets [7]; agonist 800 μM Arachidonic Acid, 10^-6 M Example 4) was 98.8 ± 1.1 % of max response and the “Platelet aggregation after Example 4 pretreatment” value (Platelets [7]; agonist 800 μM Arachidonic Acid, 10^-7 M Example 4) was 98.0 ± 1.8 % of max response. For the same compound, the “Platelet aggregation after Example 4 pretreatment” value (Platelets [7]; agonist 3.3 × 10-7 U46619, 10^-6 M Example 4) was 94.2 ± 2.8 % of max response, the “Platelet aggregation after Example 4 pretreatment” value (Platelets [7]; agonist 3.3 × 10-7 U46619, 10^-7 M Example 4) was 93.8 ± 2.3 % of max response and the “Platelet aggregation after Example 4 pretreatment” value (Platelets [7]; agonist 3.3 × 10-8 Example 7, 10^-6 M Example 4) was −7.3 + 0.7 % of max response. The “Platelet aggregation after Example 4 pretreatment” value (Platelets [7]; agonist 3.3 × 10-8 Example 7, 10^-7 M Example 4) was −9.0 + 1.6 % of max response, the “Platelet aggregation after Example 4 pretreatment” value (Platelets [7]; agonist 10-6 Example 7, 10^-6 M Example 4) was 96.5 ± 0.9 % of max response and the “Platelet aggregation after Example 4 pretreatment” value (Platelets [7]; agonist 10-6 Example 7, 10^-7 M Example 4) was 95.3 ± 0.9 % of max response. For the same compound, the “Platelet aggregation after Example 4 pretreatment” value (Platelets [7]; agonist 10-6 U46619, 10^-6 M Example 4) was 96.0 ± 0.8 % of max response, the “Platelet aggregation after Example 4 pretreatment” value (Platelets [7]; agonist 10-6 U46619, 10^-7 M Example 4) was 94.6 ± 2.6 % of max response and the “Platelet aggregation after Example 4 pretreatment” value (Platelets [7]; agonist 10-7 Example 7, 10^-6 M Example 4) was 99.5 ± 1.7 % of max response. The “Platelet aggregation after Example 4 pretreatment” value (Platelets [7]; agonist 10-7 Example 7, 10^-7 M Example 4) was 97.8 ± 1.7 % of max response, the “Platelet aggregation after Example 4 pretreatment” value (Platelets [7]; agonist 10-7 U46619, 10^-6 M Example 4) was −5.6 + 0.9 % of max response and the “Platelet aggregation after Example 4 pretreatment” value (Platelets [7]; agonist 10-7 U46619, 10^-7 M Example 4) was −5.5 + 1.1 % of max response. For the same compound, the “Platelet aggregation after Example 4 pretreatment” value (Platelets [7]; agonist 10-8 Example 7, 10^-6 M Example 4) was −8.0 + 2.9 % of max response, the “Platelet aggregation after Example 4 pretreatment” value (Platelets [7]; agonist 10-8 Example 7, 10^-7 M Example 4) was −8.4 + 0.9 % of max response and the “Inhibition of ADP or arachidonic acid induced platelet aggregation” value (Platelets [7]; in words) was “did not inhibit”. For the same compound, the Intraocular pressure change ([4]; dose 0.1%, 2 HR after dosing) was −6.7**, the Intraocular pressure change ([4]; dose 0.1%, 4 HR after dosing) was −7.7** and the Intraocular pressure change ([4]; dose 0.1%, 6 HR after dosing) was −8.5**. The “Constriction of isolated perfused coronary arteries” value ([6]; cat, in words) was “profound constric- tion”, the “Constriction of isolated perfused coronary arteries, potency relative to TXB2” value ([6]; cat) was 10^1 × TXB2 and the “Action on the vasculature” value (vasculature) was “Potent TXA2-like agonist”. The Action on platelets (platelets [8]) was “profound TXA antagonist” and the “Ischemic damage in the heart during coronary insufficiency” value [9] was “Exacerbated ischemic damage”.
